Measurements: patent US20240254138A1, “TRICYCLIC PYRIMIDINES AS CYCLIN-DEPENDENT KINASE 7 (CDK7) INHIBITORS” (JANSSEN PHARMACEUTICA NV, priority 2021, published 2024)
Where two headings read alike, the source gives them in different places.

What was measured:
[1] = tested on: RNA Polymerase II Serine 5 phosphorylation in A549 cells overexpressing CDK7-mutant (C312S); assay: Imaging-based cellular RNA PolII Ser5 phosphorylation assay in A549 cells overexpressing CDK7-mutant (C312S); assay type: cell-based, human; details: RNA PolII Ser5 phosphorylation, averaged over all measurements; for IC50: Homo sapiens, A549, A549 cells overexpressing CDK7-mutant (C312S), read-out: CDK7_A549 mutant hCDK7(pIC50) (converted); for CDK7_A549 mutant hCDK7(pIC50): A549 cells overexpressing CDK7-mutant (C312S)
Method in brief: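 Readout was automated imaging of anti-phospho-Ser5 Rpb1 CTD immunofluorescence, with IC50 fitted to % control versus concentration. Cells were A549 stably overexpressing non-covalently targetable CDK7 C312S alongside wild-type, exposed to compound 3 h at 37 °C. DMSO and 10 μM reference compound served as controls.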

[2] = tested on: RNA Polymerase II Serine 5 phosphorylation (Rpb1 CTD, downstream substrate of CDK7) in A549 cells; assay: Imaging-based cellular RNA PolII Ser5 phosphorylation assay in A549 cells; assay type: cell-based, human; details: wild-type CDK7, RNA PolII Ser5 phosphorylation, averaged over all measurements; for IC50: Homo sapiens, A549, A549 cells, read-out: CDK7_A549 Wild-type CDK7 (pIC50) (converted); for CDK7_A549 Wild-type CDK7 (pIC50): A549 cells
Method in brief: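 IC50 derived by fitting % control (DMSO high, 10 μM reference low) against concentration, with Hill slope. Readout: high-content imaging of phospho-Ser5 Rpb1 CTD antibody staining in fixed, permeabilized A549 cells exposed to compound 3 h after 20 h culture in 1% FBS DMEM.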

[3] = molecular target: CDK7/cyclinH/MAT1 trimeric complex (Homo sapiens, UniProt P50613); assay: In vitro CDK7 assay, potency of irreversible covalent inhibitors (kinact/KI), coupled PK/LDH ADP readout at 340 nm
[4] = CDK7 (20 nM enz.) (KI, μM), 20 nM enzyme
[5] = read-out: CDK7 (20 nM enz.) (kinact, s^−1), 20 nM enzyme
[6] = read-out: CDK7 (20 nM enz.) (kinact/KI, M^−1*s^−1), 20 nM enzyme
[7] = read-out: CDK7 (20 nM enz.) (kobs/[I], M^−1*s^−1), 20 nM enzyme
[8] = CDK7 (KI(μM)), […], 1 mM ATP, room temperature, averaged values over all measurements
[9] = read-out: CDK7 (kinact, s^−1), kinact = maximal rate of inactivation, 1 mM ATP, room temperature, averaged values over all measurements
[10] = read-out: CDK7 (kinact/KI, M^−1*s^−1), potency of irreversible covalent inhibitors, 1 mM ATP, room temperature, averaged values over all measurements

Chain of CDK7/cyclinH/MAT1 trimeric complex (P50613 whole entry): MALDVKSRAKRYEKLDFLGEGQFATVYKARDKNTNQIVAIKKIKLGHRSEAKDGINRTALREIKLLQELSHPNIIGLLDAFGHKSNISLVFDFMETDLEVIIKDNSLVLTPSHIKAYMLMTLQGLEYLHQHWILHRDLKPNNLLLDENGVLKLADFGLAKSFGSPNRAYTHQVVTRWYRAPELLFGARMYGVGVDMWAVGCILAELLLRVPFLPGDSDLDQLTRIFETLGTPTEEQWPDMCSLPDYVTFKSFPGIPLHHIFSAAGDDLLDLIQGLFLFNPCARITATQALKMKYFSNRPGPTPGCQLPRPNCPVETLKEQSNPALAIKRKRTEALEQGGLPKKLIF
Chain of CDK7/cyclinH/MAT1 trimeric complex (P51946 whole entry partner): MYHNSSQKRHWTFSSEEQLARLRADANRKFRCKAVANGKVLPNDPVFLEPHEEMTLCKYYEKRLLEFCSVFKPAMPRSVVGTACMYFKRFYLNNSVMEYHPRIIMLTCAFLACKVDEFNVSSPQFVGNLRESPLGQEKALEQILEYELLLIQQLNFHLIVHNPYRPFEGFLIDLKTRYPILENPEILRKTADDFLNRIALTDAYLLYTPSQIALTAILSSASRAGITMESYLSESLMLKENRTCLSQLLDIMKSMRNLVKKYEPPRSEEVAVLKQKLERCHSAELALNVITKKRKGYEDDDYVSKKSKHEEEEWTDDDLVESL
Chain of CDK7/cyclinH/MAT1 trimeric complex (P51948 whole entry partner): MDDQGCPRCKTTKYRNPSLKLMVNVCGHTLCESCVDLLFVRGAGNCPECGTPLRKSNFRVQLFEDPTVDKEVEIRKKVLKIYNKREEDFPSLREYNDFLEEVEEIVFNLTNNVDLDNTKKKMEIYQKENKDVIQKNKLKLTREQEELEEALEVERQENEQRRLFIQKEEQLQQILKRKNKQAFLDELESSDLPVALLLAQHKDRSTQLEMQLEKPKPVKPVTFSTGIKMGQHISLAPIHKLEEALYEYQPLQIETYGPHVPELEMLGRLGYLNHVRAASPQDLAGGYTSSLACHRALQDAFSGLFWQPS

Structure (SMILES)	IC50 [1] [nM]	IC50 [2] [nM]	Ki [3, 4] [µM]	kinact [3, 5] [s⁻¹]	kinact/KI [3, 6] [M⁻¹ s⁻¹]	other results
C=CC(=O)N1CCC(N2CC(c3cc4c(c(C)n3)OCc3c(N5CCOCC5)ccnc3N4)C2)CC1 [Compound 303]	6170	91.2	0.0492	2.35e-05	477	
C=CC(=O)N1CC[C@H](N2CC(c3cc(C)c4c(c3)Nc3nccc(N5CCOCC5)c3[C@H](C)O4)C2)C1 (single isomer, unassigned) [Compound 231]	> 10000	380	1.61	6.1e-05	37.8	
C=CC(=O)N1CC[C@H](N2CC(c3cc4c(c(C(F)(F)F)n3)OCc3c(-c5cnn(C)c5)ccnc3N4)C2)C1 (single isomer, unassigned) [Compound 497]	> 10000	138	0.0437	5.55e-05	1270	
C=CC(=O)N1CCC(N2CCC(c3cc(C)c4c(c3)Nc3nccc(N5CCOCC5)c3CO4)CC2)CC1 [Compound 79]	5890	37.2				kinact/KI [3, 7]: 766 M⁻¹ s⁻¹
C=CC(=O)N1CC(c2cc(-c3ccc4c(c3)Nc3nccc(N5CCOCC5)c3CO4)ccn2)C1 [Compound 58]	> 10000	490				Ki [3, 8]: 0.112 µM; kinact [3, 9]: 5.76e-05 s⁻¹; kinact/KI [3, 10]: 516 M⁻¹ s⁻¹
C=CC(=O)N1CC(N2CC[C@@H](c3cc4c(c(C)n3)O[C@@H](C)c3c(N5CCOCC5)ccnc3N4)C2)C1 (single isomer, unassigned) [Compound 392]	~10000	129	0.0655	5.4e-05	823	
C=CC(=O)Nc1ccc(-c2ccc3c(c2)Nc2nccc(N4CCOCC4)c2CO3)cn1 [Compound 26]						CDK7_A549 mutant hCDK7(pIC50) [1]: ~5.1; CDK7_A549 Wild-type CDK7 (pIC50) [2]: 7.65; CDK7 (20 nM enz.) (kobs/[I], M^−1*s^−1) ([3]; 20 nM enzyme): 1343.33 M⁻¹ s⁻¹; Ki [3, 8]: 0.063 µM; kinact [3, 9]: 0.000102 s⁻¹; kinact/KI [3, 10]: 1620 M⁻¹ s⁻¹
C=CC(=O)N1CCC(N2CC(c3cc(F)c4c(c3)Nc3nccc(N5CCOCC5)c3CO4)C2)CC1 [Compound 136]	7240	72.4	0.0603	4.42e-05	734	
C=CC(=O)N1CC(N2CC(c3cc4c(c(C5CC5)n3)OCc3c(N5CCOCC5)ccnc3N4)C2)C1 [Compound 317]	> 10000	60.3				kinact/KI [3, 7]: 1060 M⁻¹ s⁻¹
C=CC(=O)N1CC(N2CCC(c3ccc4c(c3)Nc3ncc(Cl)c(N5CCS(=O)(=O)CC5)c3CO4)CC2)C1 [Compound 60]	> 10000	977	0.128	6.43e-05	502	
C=CC(=O)N1CC[C@H](N2CC(c3cc4c(c(C(F)(F)F)n3)O[C@H](C)c3c(N5CCOCC5)ccnc3N4)C2)C1 (single isomer, unassigned) [Compound 503]						CDK7_A549 mutant hCDK7(pIC50) [1]: 5.12; CDK7_A549 Wild-type CDK7 (pIC50) [2]: 6.88; CDK7 (20 nM enz.) (kinact/KI, M^−1*s^−1) ([3]; 20 nM enzyme): 629.38 M⁻¹ s⁻¹
C=CC(=O)N1CC(N2CCC[C@@H](c3ccc4c(c3)Nc3nccc(N5CCOCC5)c3CO4)C2)C1 (single isomer, unassigned) [Compound 145]	> 10000	977	0.872	7.9e-05	90.6	
C=CC(=O)N1CC(n2cc(-c3cc4c(c(C)n3)OCc3c(N5CCOCC5)ccnc3N4)cn2)C1 [Compound 244]	~7940	72.4	0.0398	4.37e-05	1100	
C=CC(=O)N1CCC(N2CC(c3cc4c(c(C(F)(F)F)c3)OCc3c(N5CCOCC5)ccnc3N4)C2)CC1 [Compound 111]	4170	45.7				kinact/KI [3, 7]: 622 M⁻¹ s⁻¹
C=CC(=O)Nc1ccc(CCc2ccc3c(c2)Nc2nccc(N4CCOCC4)c2CO3)cn1 [Compound 65]	8710	67.6				kinact/KI [3, 7]: 1160 M⁻¹ s⁻¹
C=CC(=O)N1CCC(N2CC(c3ccc4c(c3)Nc3nccc(C5CCOCC5)c3CO4)C2)CC1 [Compound 96]	> 10000	123	0.184			CDK7 (20 nM enz.) (kinact, s^−1) ([3]; 20 nM enzyme): 4.701e-05 s⁻¹; CDK7 (20 nM enz.) (kinact/KI, M^−1*s^−1) ([3]; 20 nM enzyme): 255.867 M⁻¹ s⁻¹
C=CC(=O)N1CC[C@H](N2CC(c3cc(C#N)c4c(c3)Nc3nccc(N5CCOCC5)c3[C@H](C)O4)C2)C1 (single isomer, unassigned) [Compound 460]	> 10000	1290			14.4	
C=CC(=O)N1CC(N2CCC(c3ccc4c(c3)Nc3nccc(-c5cnn(C)c5)c3[C@@H](C)O4)CC2)C1 (single isomer, unassigned) [Compound 127]	8320	27.5				kinact/KI [3, 7]: 1420 M⁻¹ s⁻¹
C=CC(=O)N1CC(N2CCC(c3ccc4c(c3)Nc3nccc(N5CCOC6(CC6)C5)c3CO4)CC2)C1 [Compound 77]	> 10000	182	0.0571	5.75e-05	1010	
C=CC(=O)N1CC(N2CCC(c3cc(Cl)c4c(c3)Nc3nccc(C5CCOCC5)c3CO4)CC2)C1 [Compound 119]						CDK7_A549 mutant hCDK7(pIC50) [1]: <5; CDK7_A549 Wild-type CDK7 (pIC50) [2]: 7.42; CDK7 (20 nM enz.) (kobs/[I], M^−1*s^−1) ([3]; 20 nM enzyme): 1611.37 M⁻¹ s⁻¹
C=CC(=O)N1CCC(C2CN(c3cc4c(c(C)n3)OCc3c(N5CCOCC5)ccnc3N4)C2)CC1 [Compound 439]	> 10000	1100	0.401	1.01e-05	25.2	
C=CC(=O)N1CC(N2CCC(c3cc(F)c4c(c3)Nc3nccc(-c5cnn(C)c5)c3CO4)CC2)C1 [Compound 126]	> 10000	47.9				CDK7 (20 nM enz.) (kobs/[I], M^−1*s^−1) ([3]; 20 nM enzyme): 875.576 M⁻¹ s⁻¹
C=CC(=O)N1CC(N2CCC(c3ccc4c(c3)Nc3nccc(-c5cnn(C)c5)c3[C@@H](C)O4)CC2)C1 (single isomer, unassigned) [Compound 233]	8710	28.2				kinact/KI [3, 7]: 1450 M⁻¹ s⁻¹
C=CC(=O)N1CC(N2CCC(c3cc(Cl)c4c(c3)Nc3nccc(N5CCOCC5)c3CO4)CC2)C1 [Compound 29]	~7760	38.9			1030	
C=CC(=O)N1CC[C@H](N2CC(c3cc(C)c4c(c3)Nc3nccc(-c5cnn(C)c5)c3CO4)C2)C1 (single isomer, unassigned) [Compound 361]	~10000	60.3	0.0291	5.06e-05	1740	
C=CC(=O)N1CCC(n2cc(-c3cc(C)c4c(c3)Nc3nccc(N5CCOCC5)c3CO4)cn2)CC1 [Compound 379]	7080	224	0.0333	1.58e-05	475	
C=CC(=O)N1CC(N2CC[C@@H](c3cc4c(c(C)n3)O[C@H](C)c3c(N5CCOCC5)ccnc3N4)C2)C1 (single isomer, unassigned) [Compound 319]	> 10000	77.6	0.047	6.15e-05	1310	
CC#CC(=O)N1CC[C@H](N2CC(c3cc4c(c(C)n3)O[C@@H](C)c3c(N5CCOCC5)ccnc3N4)C2)C1 (single isomer, unassigned) [Compound 512]	> 10000					CDK7_A549 Wild-type CDK7 (pIC50) [2]: 7.56
C/C=C/C(=O)N1CC(N2CCC(c3cc4c(c(C)n3)OCc3c(-c5cnn(C)c5)ccnc3N4)CC2)C1 [Compound 537]	> 10000	> 10000				
C=CC(=O)N1CC(N2CCC(c3ccc4c(c3)Nc3nccc(C5CCOCC5)c3CO4)CC2)C1 [Compound 254]						CDK7_A549 mutant hCDK7(pIC50) [1]: <5; CDK7_A549 Wild-type CDK7 (pIC50) [2]: 6.97
